Patent publication US20170253607A1, “LONG-ACTING HIV PROTEASE INHIBITOR” (Shionogi & Co., Ltd., priority 2014, published 2017)

Target: HIV-1 PR (Human immunodeficiency virus type 1 group M subtype B, UniProt P04585)
Assay: HIV-protease inhibitory activity assay (FRET peptide substrate)
Assay type: biochemical
Details: Test Example 1
How it was run: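 HIV-1 PR (0.83 ng) preincubated with compounds 20 min at room temperature in 0.1 mol/L NaAc, 0.5 mol/L NaCl, 1 mmol/L EDTA, 1 mmol/L DTT, 0.05% Tween 20, pH 4.8. Cleavage of HiLyte Fluor 488/QXL 520 FRET peptide (2 μmol/L) read after 60 minutes at 485/535 nm; IC50 from four-parameter logistic fit.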

Compound	IC50 [nM]
COc1ccc(S(=O)(=O)N(CC(C)C)CC(O)C(Cc2ccc(OCC3COCC3c3sc4c(c3C(=O)O)CC(C)(C)CC4)cc2)NC(=O)OC2COC3(C)OCCC23)cc1 (stereo not drawn) [Compound I-395]	1.86
COc1ccc(S(=O)(=O)N(CC(C)C)CC(O)C(Cc2ccc(N3Cc4nc5ccccc5cc4C3=O)cc2)NC(=O)OC2COC3(C)OCCC23)cc1 (stereo not drawn) [Compound I-771]	2
COc1ccc(S(=O)(=O)N(CC(C)C)CC(O)C(Cc2ccc(NC(=O)c3sc4c(c3C(=O)O)CC(C)(C)CC4)cc2)NC(=O)OC2COC3(C)OCCC23)cc1 (stereo not drawn) [Compound I-208]	1.86
COc1ccc(S(=O)(=O)N(CC(C)C)CC(O)C(Cc2ccc(NCc3nc4ccccc4cc3C(=O)Nc3sc4c(c3C(=O)O)CC(C)(C)CC4)cc2)NC(=O)OC2COC3(C)OCCC23)cc1 (stereo not drawn) [Compound I-774]	6.26
COc1ccc(S(=O)(=O)N(CC(C)C)CC(O)C(Cc2ccc(OCc3cnn(-c4ccccc4)c3-c3sc4c(c3C(=O)O)CC(C)(C)CC4)cc2)NC(=O)OC2COC3(C)OCCC23)cc1 (stereo not drawn) [Compound I-185]	1.71
CC(C)CN(C[C@@H](O)[C@H](Cc1ccc(OCc2ccccc2-c2sc3c(c2C(=O)O)CC(C)(C)CC3)cc1)NC(=O)O[C@H]1CO[C@@]2(C)OCC[C@@H]12)S(=O)(=O)c1ccc(N)c(/C=C/C(N)=O)c1 [Compound I-16]	2.22
COc1ccc(S(=O)(=O)N(CC(C)C)CC(O)C(Cc2ccc(OCc3ccccc3-c3oc4c(c3C(=O)O)CCCC4)cc2)NC(=O)OC2COC3OCCC23)cc1 (stereo not drawn) [Compound I-834]	1.15
COc1ccc(S(=O)(=O)N(CC(C)C)CC(O)C(Cc2ccc(NCc3ccccc3-c3sc4c(c3C(=O)O)C(=O)CCC4)cc2)NC(=O)OC2COC3(C)OCCC23)cc1 (stereo not drawn) [Compound I-367]	2.61
COc1ccc(S(=O)(=O)N(CC(C)C)CC(O)C(Cc2ccc(N(C)Cc3ccc(C)cc3C(=O)Nc3sc4c(c3C(=O)O)CC(C)(C)CC4)cc2)NC(=O)OC2COC3(C)OCCC23)cc1 (stereo not drawn) [Compound I-745]	3.39
COc1ccc(S(=O)(=O)N(CC(C)C)CC(O)C(Cc2ccc(NCc3cccc(F)c3C(=O)Nc3sc4c(c3C(=O)O)CC(C)(C)CC4)cc2)NC(=O)OC2COC3(C)OCCC23)cc1 (stereo not drawn) [Compound I-749]	2.33
CCCCCCN(Cc1ccccc1-c1sc2c(c1C(=O)O)CC(C)(C)CC2)c1ccc(CC(NC(=O)OC2COC3(C)OCCC23)C(O)CN(CC(C)C)S(=O)(=O)c2ccc(OC)cc2)cc1 (stereo not drawn) [Compound I-428]	15.9
COc1ccc(S(=O)(=O)N(CC(C)C)CC(O)C(Cc2ccc(OCc3ccccc3-c3sc(N4CCC(C)(C)CC4)nc3C(=O)O)cc2)NC(=O)OC2COC3OCCC23)cc1 (stereo not drawn) [Compound I-845]	0.85
COc1ccc(S(=O)(=O)N(CC(C)C)CC(O)C(Cc2ccc(NCc3cc(-c4sc5c(c4C(=O)O)CC(C)(C)CC5)co3)cc2)NC(=O)OC2COC3(C)OCCC23)cc1 (stereo not drawn) [Compound I-284]	2.98
COc1ccc(S(=O)(=O)N(CC(C)C)CC(O)C(Cc2ccc(N(C)Cc3cc(C#N)ccc3-c3sc4c(c3C(=O)O)CC(C)(C)CC4)cc2)NC(=O)OC2COC3(C)OCCC23)cc1 (stereo not drawn) [Compound I-452]	2.6
COc1ccc(S(=O)(=O)N(CC2CCC(=O)N2)CC(O)C(Cc2ccc(OCc3ccccc3-c3sc4c(c3C(=O)O)CC(C)(C)CC4)cc2)NC(=O)OC2COC3OCCC23)cc1 (stereo not drawn) [Compound I-838]	0.76
COc1ccc(S(=O)(=O)N(CC(C)C)CC(O)C(Cc2ccc(NCC3=C(c4sc5c(c4C(=O)O)CC(C)(C)CC5)CCC3)cc2)NC(=O)OC2COC3(C)OCCC23)cc1 (stereo not drawn) [Compound I-381]	4.69
COc1ccc(S(=O)(=O)N(CC(C)C)CC(O)C(Cc2ccc(OCc3ccccc3-c3ccc(-n4nc(C(=O)O)c5c4CCC(C)(C)C5)cc3)cc2)NC(=O)OC2COC3(C)OCCC23)cc1 (stereo not drawn) [Compound I-302]	2.28

Compound	IC50 [nM]
COc1ccc(S(=O)(=O)N(CC(C)C)C[C@@H](O)[C@H](Cc2ccc(OCc3ccc(-c4ccc(F)cc4F)cc3-c3noc(=O)[nH]3)cc2)NC(=O)O[C@H]2CO[C@@]3(C)OCC[C@@H]23)cc1 [Compound I-21]	1.39
COc1ccc(S(=O)(=O)N(CC(C)C)CC(O)C(Cc2ccc(N3CCc4c(-c5sc6c(c5C(=O)O)CC(C)(C)CC6)cccc43)cc2)NC(=O)OC2COC3(C)OCCC23)cc1 (stereo not drawn) [Compound I-300]	4.78
COc1ccc(S(=O)(=O)N(CC(C)C)CC(O)C(Cc2ccc(NCc3ccc(C(=O)O)cc3)cc2)NC(=O)OC2COC3(C)OCCC23)cc1 (stereo not drawn) [Compound I-316]	1.85
COc1ccc(S(=O)(=O)N(CC(C)C)CC(O)C(Cc2ccc(NCC3CC(C)(C)CC3c3sc4c(c3C(=O)O)CC(C)(C)CC4)cc2)NC(=O)OC2COC3(C)OCCC23)cc1 (stereo not drawn) [Compound I-735]	1.56
COc1ccc(S(=O)(=O)N(CC(C)C)CC(O)C(Cc2ccc(NCc3ccc(Oc4ccccc4)cc3-c3sc4c(c3C(=O)O)CC(C)(C)CC4)cc2)NC(=O)OC2COC3(C)OCCC23)cc1 (stereo not drawn) [Compound I-695]	4.07
COc1ccc(S(=O)(=O)N(CC(C)C)CC(O)C(Cc2ccc(NCc3ccccc3-c3ccc(-c4sc5c(c4C(=O)O)CC(C)(C)CC5)nc3)cc2)NC(=O)OC2COC3(C)OCCC23)cc1 (stereo not drawn) [Compound I-713]	1.69
COc1ccc(S(=O)(=O)N(CC(C)C)CC(O)C(Cc2ccc(N(Cc3ccncc3)Cc3ccccc3-c3sc4c(c3C(=O)O)CC(C)(C)CC4)cc2)NC(=O)OC2COC3(C)OCCC23)cc1 (stereo not drawn) [Compound I-425]	2.65
COc1ccc(S(=O)(=O)N(CC(C)C)C[C@@H](O)[C@H](Cc2ccc(C#Cc3sc4c(c3C(=O)O)CC(C)(C)CC4)cc2)NC(=O)O[C@H]2CO[C@@]3(C)OCC[C@@H]23)cc1 [Compound I-11]	1.4
COc1ccc(S(=O)(=O)N(CC(C)C)CC(O)C(Cc2ccc(OCc3ccccc3-c3c(OCc4ccccc4)noc3C(=O)O)cc2)NC(=O)OC2COC3(C)OCCC23)cc1 (stereo not drawn) [Compound I-344]	2.83
COc1ccc(S(=O)(=O)N(CC(C)C)CC(O)C(Cc2ccc(N(Cc3ccccc3-c3sc4c(c3C(=O)O)CC(C)(C)CC4)CC3CCCCC3)cc2)NC(=O)OC2COC3(C)OCCC23)cc1 (stereo not drawn) [Compound I-42]	23.4
CC(C)CN(CC(O)C(Cc1ccc(NCc2ccccc2C(=O)Nc2sc3c(c2C(=O)O)CC(C)(C)CC3)cc1)NC(=O)OC1COC2OCCC12)S(=O)(=O)c1ccc2c(c1)OCO2 (stereo not drawn) [Compound I-854]	3.16
COc1ccc(S(=O)(=O)N(CC(C)C)CC(O)C(Cc2ccc(OCC3CCN(c4cccc(-c5sc6c(c5C(=O)O)CC(C)(C)CC6)c4)C3)cc2)NC(=O)OC2COC3(C)OCCC23)cc1 (stereo not drawn) [Compound I-896]	16.7
COc1ccc(S(=O)(=O)N(CC(C)C)CC(O)C(Cc2ccc(OCc3ccccc3-n3nc(C(=O)O)c4c3CCC(C)(C)C4)cc2)NC(=O)OC2COC3OCCC23)cc1 (stereo not drawn) [Compound I-837]	0.82
COc1ccc(S(=O)(=O)N(CC(C)C)CC(O)C(Cc2ccc(N(C)Cc3ccccc3NC(=O)c3sc4c(c3C(=O)O)CC(C)(C)CC4)cc2)NC(=O)OC2COC3(C)OCCC23)cc1 (stereo not drawn) [Compound I-587]	1.71
CC(C)CN(CC(O)C(Cc1ccc(CCc2sc3c(c2C(=O)O)CC(C)(C)CC3)cc1)NC(=O)OC1COC2(C)OCCC12O)S(=O)(=O)c1ccc2ncsc2c1 (stereo not drawn) [Compound I-889]	1.49
COc1ccc(S(=O)(=O)N(CC(C)C)CC(O)C(Cc2ccc(OCC3CCCN3c3ccc(C#N)cc3-c3sc4c(c3C(=O)O)CC(C)(C)CC4)cc2)NC(=O)OC2COC3(C)OCCC23)cc1 (stereo not drawn) [Compound I-326]	9.19
